Test results from paper PMC11584656, “Viral sequence determines HLA-E-restricted T cell recognition of hepatitis B surface antigen” (Nature Communications, 2024).
Read-outs that look alike come from different tables or passages of the source.

What was measured:
[1] = molecular target: recombinant human HLA-E*01:03 (heavy chain with β2m), soluble, refolded; experiment: SPR
[2] = molecular target: recombinant human HLA-E*01:03 (heavy chain with β2m), soluble, refolded; experiment: thermal shift assay (refolded pHLA-E*01:03 complexes); Tm of the same pHLA-E*01:03 complexes as in the SPR stability assay (Fig. 1c); triplicate
[3] = system: THP-1-E cells (HLA-E*01:01) pulsed with peptide; experiment: IFN-γ ELISpot cross-reactivity screen with HLA-E binding peptides; type: cell-based, human; settings: 1 nM ImmTAV, THP-1-E cells pulsed with 10 μg/mL peptide, average of 2 HBV-naïve donor PBMC each in triplicate
[4] = system: THP-1-E cells (HLA-E*01:03) pulsed with peptide; experiment: as above; type: cell-based, human; settings: 1 nM ImmTAV, THP-1-E cells pulsed with 10 μg/mL peptide, average of 2 HBV-naïve donor PBMC each in triplicate
[5] = molecular target: T1, HLA-E*01:03 (Homo sapiens, UniProt P13747); type: binding; settings: for Tm (°C): Figure 1a source data, 60:1 peptide excess; for Thermal stability Tm (°C): SYPRO Orange, 22-95 °C at 1 °C/min, mean ± SD of triplicates, SD
[6] = molecular target: single chain β2m-HLA-E*01:01 on transduced cells
[7] = molecular target: single chain β2m-HLA-E*01:03 on transduced cells
[8] = molecular target: recombinant human HLA-E*01:03 (heavy chain with β2m), soluble, refolded; experiment: thermal shift assay (peptide screen)
[9] = system: K562 cells transduced with single chain β2m-HLA-E*01:01; experiment: K562 cell pulsing assay, HLA-E surface upregulation (3D12, flow cytometry); type: cell-based, human
[10] = system: K562 cells transduced with single chain β2m-HLA-E*01:03; experiment: as above; type: cell-based, human
[11] = molecular target: T1, HLA-E*01:03; type: binding; set-up: made in house; settings: refolded complexes
[12] = molecular target: T1, HLA-E*01:03; experiment: pHLA-E stability (t1/2) by SPR monitoring ILT2 binding; set-up: made in house; settings: SPR 25 °C

## A1 signal peptide
[1]
  t1/2 of the peptide-HLA-E complex: 2 h
[2]
  Tm of the peptide-HLA-E complex: 49 °C

## ALSWRLPLL [Mimetic peptide 1]
[3]
  HLA-E*01:01 INF-γ release (SFU ± SD): 61.6±21.8 SFU
[4]
  HLA-E*01:03 INF-γ release (SFU ± SD): 54.1±15.6 SFU

## CIPIPSSWAF [HBV Env peptide 312-321]
[5]; replicate 1
  Tm (°C): 42.2 °C
[5]; replicate 2
  Tm (°C): 41.7 °C
[5]; replicate 3
  Tm (°C): 42.2 °C
[5]
  Thermal stability Tm (°C): 42.1±0.3 °C

## Cw3 signal peptide
[1]
  t1/2 of the peptide-HLA-E complex: 2 h
[2]
  Tm of the peptide-HLA-E complex: 49 °C

## FIIFLFILL [HBV Env peptide 243-251]
[5]; replicate 1
  Tm (°C): 38.9 °C
[5]; replicate 2
  Tm (°C): 39.2 °C
[5]; replicate 3
  Tm (°C): 39.5 °C
[5]
  Thermal stability Tm (°C): 39.3±0.3 °C

## GMLPVCPLL [HBV Env peptide 265-273]
[5]; replicate 1
  Tm (°C): 45.1 °C
[5]; replicate 2
  Tm (°C): 45.1 °C
[5]; replicate 3
  Tm (°C): 45.5 °C
[5]
  Thermal stability Tm (°C): 45.3±0.3 °C

## HBV Env_(371-379) (S3N) peptide …
[1]
  t1/2 of the peptide-HLA-E complex: 0.658 h
[2]
  Tm of the peptide-HLA-E complex: 47 °C
[6]
  peptide concentration at which IFN-γ responses (ELISPOT) were detected: peptide titrated on THP-1-E*01:01 cells, PBMC, 1 nM a09b08 ImmTAV: 4.9 µg/mL
[7]
  peptide concentration at which IFN-γ responses (ELISPOT) were detected: peptide titrated on THP-1-E*01:03 cells, PBMC, 1 nM a09b08 ImmTAV: 0.2 µg/mL

## HBV Env_(371-379) peptide …
[1]
  t1/2 of the peptide-HLA-E complex: 0.112 h
[2]
  Tm of the peptide-HLA-E complex: 44 °C
[7]
  peptide concentration at which IFN-γ responses (ELISPOT) were detected: peptide titrated on THP-1-E*01:03 cells, PBMC, 1 nM a09b08 ImmTAV: 8.7 µg/mL
[8]
  Tm of the peptide-HLA-E complex: 47.1 °C

## ILPSDAPVL [MTB MmmpL875-83]
[3]
  HLA-E*01:01 INF-γ release (SFU ± SD): 52.6±17.39 SFU
[4]
  HLA-E*01:03 INF-γ release (SFU ± SD): 54.8±17.4 SFU

## ILQRFLPLI [Mimetic peptide 2]
[3]
  HLA-E*01:01 INF-γ release (SFU ± SD): 60.5±20.8 SFU
[4]
  HLA-E*01:03 INF-γ release (SFU ± SD): 48.6±29.1 SFU

## IMAPRTLVL [Leader A34]
[3]
  HLA-E*01:01 INF-γ release (SFU ± SD): 55.5±6.8 SFU
[4]
  HLA-E*01:03 INF-γ release (SFU ± SD): 54.5±18.9 SFU

## LLPRRGPRL [HCV Core]
[3]
  HLA-E*01:01 INF-γ release (SFU ± SD): 61.1±21.8 SFU
[4]
  HLA-E*01:03 INF-γ release (SFU ± SD): 60±30.1 SFU

## QMRPVSRVL [Hsp60 signal peptide]
[3]
  HLA-E*01:01 INF-γ release (SFU ± SD): 43.8±6.36 SFU
[4]
  HLA-E*01:03 INF-γ release (SFU ± SD): 41.8±9.9 SFU

## RLPAKAPLL [Mtb RLPA]
[9]
  cell surface HLA-E expression after peptide pulsing: increased cell surface HLA-E expression
[3]
  HLA-E*01:01 INF-γ release (SFU ± SD): 67.1±12.6 SFU
[10]
  cell surface HLA-E expression after peptide pulsing: increased cell surface HLA-E expression
[4]
  HLA-E*01:03 INF-γ release (SFU ± SD): 72.1±12.8 SFU

## RWMCLRRFI [HBV Env peptide 236-244]
[5]; replicate 1
  Tm (°C): 37.9 °C
[5]; replicate 2
  Tm (°C): 37.9 °C
[5]; replicate 3
  Tm (°C): 38.4 °C
[5]
  Thermal stability Tm (°C): 38.2±0.3 °C

## SSWAFARFL [HBV Env peptide 317-325]
[5]; replicate 1
  Tm (°C): 40.7 °C
[5]; replicate 2
  Tm (°C): 40.6 °C
[5]; replicate 3
  Tm (°C): 40.7 °C
[5]
  Thermal stability Tm (°C): 40.7±0.1 °C

## VMAPQALLL [Leader Cw16]
[3]
  HLA-E*01:01 INF-γ release (SFU ± SD): 33.3±16.4 SFU
[4]
  HLA-E*01:03 INF-γ release (SFU ± SD): 49.1±19.2 SFU

## VMAPRALLL [Leader Cw7]
[3]
  HLA-E*01:01 INF-γ release (SFU ± SD): 30.3±12.9 SFU
[4]
  HLA-E*01:03 INF-γ release (SFU ± SD): 44.1±22.1 SFU

## VMAPRTLFL [Leader G]
[3]
  HLA-E*01:01 INF-γ release (SFU ± SD): 44.8±19.8 SFU
[4]
  HLA-E*01:03 INF-γ release (SFU ± SD): 48.1±19.7 SFU

## VMAPRTLLL [Leader A1]
[3]
  HLA-E*01:01 INF-γ release (SFU ± SD): 67.8±14.9 SFU
[4]
  HLA-E*01:03 INF-γ release (SFU ± SD): 65.6±28.4 SFU
[11]; thermal shift assay, mean ± SD of triplicates
  pHLA-E*01:03 Tm: 49 °C
[11]; first well of three
  pHLA-E*01:03 (Tm °C): 49.62 °C
[11]; second well of three
  pHLA-E*01:03 (Tm °C): 48.27 °C
[11]; third well of three
  pHLA-E*01:03 (Tm °C): 48.53 °C
[12]; Run 1
  pHLA-E*01:03 (t1/2 min): 105 min
[12]; Run 2
  pHLA-E*01:03 (t1/2 min): 125 min
[12]; Run 3
  pHLA-E*01:03 (t1/2 min): 127 min
[12]; rounded value
  pHLA-E*01:03 t1/2: 2 h

## VMAPRTLVL [Leader A2]
[3]
  HLA-E*01:01 INF-γ release (SFU ± SD): 50.5±6.8 SFU
[4]
  HLA-E*01:03 INF-γ release (SFU ± SD): 64.5±9.8 SFU

## VMAPRTVLL [Leader B7]
[3]
  HLA-E*01:01 INF-γ release (SFU ± SD): 43.3±7.8 SFU
[4]
  HLA-E*01:03 INF-γ release (SFU ± SD): 48.7±7.3 SFU

## VMPPRTLLL [Leader A80]
[3]
  HLA-E*01:01 INF-γ release (SFU ± SD): 44.8±8.6 SFU
[4]
  HLA-E*01:03 INF-γ release (SFU ± SD): 61.1±14.3 SFU

## VTAPRTLLL [Leader B13]
[3]
  HLA-E*01:01 INF-γ release (SFU ± SD): 53±13.4 SFU
[4]
  HLA-E*01:03 INF-γ release (SFU ± SD): 56±17.9 SFU

## VTAPRTVLL [Leader B15]
[3]
  HLA-E*01:01 INF-γ release (SFU ± SD): 42.8±13.4 SFU
[4]
  HLA-E*01:03 INF-γ release (SFU ± SD): 40±17.4 SFU
